Experimental data from ChEMBL document CHEMBL1201862, “PubChem BioAssay data set” (2004).
One block for each compound: values may come before it. Calls of active or inactive are those of the source.

Tests used:
[1] = biological target: Serine/threonine-protein phosphatase PP1-alpha catalytic subunit (Homo sapiens, UniProt P62136); experiment: PP1 phosphatase inhibitors, dose response, biochemical, fluorescence (AID 2394)
Caspase-3 [2] = biological target: T1, Caspase-3 (Homo sapiens, UniProt P42574); experiment: SAR Analysis of small molecule inhibitors of Sentrin-specific proteases (SENPs) using a Caspase-3 Selectivity assay. [Related pubchem assays (depositor defined):AID2540, AID2599, AID434973, AID489001]; format: functional
T1 sequence (P42574 whole entry): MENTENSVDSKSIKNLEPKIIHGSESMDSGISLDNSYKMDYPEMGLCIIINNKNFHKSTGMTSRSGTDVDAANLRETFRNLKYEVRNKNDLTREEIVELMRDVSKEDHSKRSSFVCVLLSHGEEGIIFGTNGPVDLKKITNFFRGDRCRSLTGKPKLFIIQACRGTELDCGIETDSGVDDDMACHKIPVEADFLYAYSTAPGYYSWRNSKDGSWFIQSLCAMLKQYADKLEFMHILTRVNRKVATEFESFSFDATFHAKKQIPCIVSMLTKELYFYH

SUMO-activating enzyme [3] = biological target: T2, SUMO-activating enzyme (Homo sapiens, UniProt Q9UBT2); experiment: SUMOylation inhibitor hit validation, confirmation, SUMOylation inhibitor project, biochemical, AlphaScreen (AID 2018); format: functional
SUMO-activating enzyme [4] = biological target: T2, SUMO-activating enzyme; experiment: inhibitors of in vitro SUMOylation cascade, primary screen, biochemical, HTRF, uHTS (AID 2006); format: protein-complex assay
Caspase-3 [5] = biological target: T1, Caspase-3; format: functional
[6] = cytotoxicity toward NIH3T3 fibroblasts, dose response, counter-screen, cell-based, ATP luminescence, mouse fibroblasts (AID 2010); format: functional;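 further: cells exposed to compound for about 90 hours before reading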
[7] = biological target: RAC-alpha serine/threonine-protein kinase (Homo sapiens, UniProt P31749); format: functional;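 further: AKT1 affinity measured as one member of a kinome-wide kinase profiling panel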
[8] = biological target: Receptor tyrosine-protein kinase erbB-4 (Homo sapiens, UniProt Q15303); format: functional;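 further: ERBB4 member of a kinome-wide kinase profiling panel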
[9] = biological target: Tyrosine-protein kinase ITK/TSK (Homo sapiens, UniProt Q08881); format: functional;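 further: affinity for ITK measured as one member of a broad kinase panel profiling binding across the kinome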
[10] = biological target: Serine/threonine-protein kinase pim-1 (Homo sapiens, UniProt P11309); format: functional
[11] = biological target: Inhibitor of nuclear factor kappa-B kinase subunit epsilon (Homo sapiens, UniProt Q14164); experiment: Navigating the Kinome. Panel member name: IKBKE; format: functional
[12] = biological target: Serine/threonine-protein kinase pim-2 (Homo sapiens, UniProt Q9P1W9); format: functional;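 further: value comes from a broad kinase panel profiling study in which PIM2 was one of the panel members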
[13] = biological target: Dual specificity tyrosine-phosphorylation-regulated kinase 3 (Homo sapiens, UniProt O43781); format: functional;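 further: measured as one member of a broad kinase panel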
[14] = biological target: Serine/threonine-protein kinase 17A (Homo sapiens, UniProt Q9UEE5); format: functional
[15] = biological target: STE20-like serine/threonine-protein kinase (Homo sapiens, UniProt Q9H2G2); format: functional
[16] = biological target: cAMP-dependent protein kinase catalytic subunit alpha (Homo sapiens, UniProt P17612); format: functional
[17] = biological target: Tyrosine-protein kinase Lyn (Homo sapiens, UniProt P07948); format: functional;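 further: lyn as one member of a kinase panel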
[18] = biological target: Calcium/calmodulin-dependent protein kinase type II subunit alpha (Homo sapiens, UniProt Q9UQM7); experiment: Navigating the Kinome. Panel member name: CAMK2A; format: functional
Misshapen-like kinase 1 = Misshapen-like kinase 1 (Homo sapiens, UniProt Q8N4C8); format: functional;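 further: kinome panel screen with MINK as the panel member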
[19] = biological target: Serine/threonine-protein kinase D3 (Homo sapiens, UniProt O94806); format: functional;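 further: determined within a kinase panel screen, with PRKCN as the panel member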
[20] = biological target: Interleukin-1 receptor-associated kinase 1 (Homo sapiens, UniProt P51617); format: functional;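 further: IRAK1 tested as one member of a kinome panel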
[21] = biological target: Testis-specific serine/threonine-protein kinase 1 (Homo sapiens, UniProt Q9BXA7); format: functional
Activin receptor type-1 = Activin receptor type-1 (Homo sapiens, UniProt Q04771); experiment: Navigating the Kinome. Panel member name: ACVR1; format: functional
[22] = biological target: Dual specificity protein kinase CLK2 (Homo sapiens, UniProt P49760); format: functional
[23] = biological target: Mitogen-activated protein kinase 13 (Homo sapiens, UniProt O15264); format: functional
[24] = biological target: Vascular endothelial growth factor receptor 2 (Homo sapiens, UniProt P35968); format: functional
[25] = biological target: Casein kinase II subunit alpha (Homo sapiens, UniProt P68400); format: functional
[26] = biological target: Tyrosine-protein kinase JAK2 (Homo sapiens, UniProt O60674); format: functional;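 further: JAK2 tested as one member of a kinase panel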
[27] = biological target: Dual specificity mitogen-activated protein kinase kinase 1 (Homo sapiens, UniProt Q02750); experiment: Navigating the Kinome. Panel member name: MAP2K1; format: functional
[28] = biological target: Serine/threonine-protein kinase DCLK1 (Homo sapiens, UniProt O15075); format: functional;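 further: affinity for DCLK1 (listed as DCAMKL1) measured as one member of a kinome-wide kinase profiling panel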
Insulin receptor = Insulin receptor (Homo sapiens, UniProt P06213); format: functional;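 further: insulin receptor kinase tested as one member of a kinome-wide kinase panel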
[29] = biological target: Ribosomal protein S6 kinase beta-1 (Homo sapiens, UniProt P23443); format: functional;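 further: measured as one member of a kinome-wide profiling panel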
[30] = biological target: Serine/threonine-protein kinase PAK 4 (Homo sapiens, UniProt O96013); format: functional;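 further: value obtained within a kinome profiling panel in which PAK4 was one of the panel members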
[31] = biological target: Protein kinase C gamma type (Homo sapiens, UniProt P05129); format: functional
[32] = biological target: Mitogen-activated protein kinase 12 (Homo sapiens, UniProt P53778); format: functional;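 further: measured as one member of a kinome-wide kinase profiling panel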
Mitogen-activated protein kinase 12, sequence (P53778 whole entry): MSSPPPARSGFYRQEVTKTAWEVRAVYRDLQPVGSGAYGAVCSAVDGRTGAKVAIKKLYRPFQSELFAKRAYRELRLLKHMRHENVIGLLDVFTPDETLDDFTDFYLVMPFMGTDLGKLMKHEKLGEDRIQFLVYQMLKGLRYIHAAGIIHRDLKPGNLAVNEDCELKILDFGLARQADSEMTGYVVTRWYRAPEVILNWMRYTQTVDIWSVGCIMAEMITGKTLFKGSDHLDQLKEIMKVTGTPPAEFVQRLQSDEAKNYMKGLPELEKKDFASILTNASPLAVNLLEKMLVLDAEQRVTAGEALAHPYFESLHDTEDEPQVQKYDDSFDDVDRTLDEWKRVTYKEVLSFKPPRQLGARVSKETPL

T2 sequence (Q9UBE0 whole entry): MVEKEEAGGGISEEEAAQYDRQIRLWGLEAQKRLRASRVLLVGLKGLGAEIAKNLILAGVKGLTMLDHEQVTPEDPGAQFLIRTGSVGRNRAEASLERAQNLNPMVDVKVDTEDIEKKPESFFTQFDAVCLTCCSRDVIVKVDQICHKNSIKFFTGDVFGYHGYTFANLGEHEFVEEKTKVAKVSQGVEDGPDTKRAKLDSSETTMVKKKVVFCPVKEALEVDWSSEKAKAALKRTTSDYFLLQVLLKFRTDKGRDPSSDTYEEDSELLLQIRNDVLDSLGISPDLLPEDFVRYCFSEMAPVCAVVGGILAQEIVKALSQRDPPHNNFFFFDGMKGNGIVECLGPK
T2 sequence (Q9UBT2 whole entry): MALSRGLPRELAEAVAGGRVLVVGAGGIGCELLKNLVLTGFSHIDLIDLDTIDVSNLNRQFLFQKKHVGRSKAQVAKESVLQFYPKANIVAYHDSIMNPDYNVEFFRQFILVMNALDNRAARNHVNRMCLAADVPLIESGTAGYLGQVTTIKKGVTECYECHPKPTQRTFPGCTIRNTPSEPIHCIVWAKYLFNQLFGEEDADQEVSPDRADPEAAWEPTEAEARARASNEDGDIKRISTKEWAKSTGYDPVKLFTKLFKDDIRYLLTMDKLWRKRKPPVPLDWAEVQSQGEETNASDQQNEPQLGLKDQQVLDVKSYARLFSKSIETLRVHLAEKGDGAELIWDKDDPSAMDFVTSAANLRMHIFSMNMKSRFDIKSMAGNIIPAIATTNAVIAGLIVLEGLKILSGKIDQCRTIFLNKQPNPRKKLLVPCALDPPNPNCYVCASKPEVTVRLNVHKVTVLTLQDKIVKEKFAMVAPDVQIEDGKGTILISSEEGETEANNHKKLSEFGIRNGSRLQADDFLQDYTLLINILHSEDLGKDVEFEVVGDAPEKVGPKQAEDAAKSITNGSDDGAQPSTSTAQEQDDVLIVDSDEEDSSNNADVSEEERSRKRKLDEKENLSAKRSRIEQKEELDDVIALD
Serine/threonine-protein kinase DCLK1, sequence (O15075 whole entry): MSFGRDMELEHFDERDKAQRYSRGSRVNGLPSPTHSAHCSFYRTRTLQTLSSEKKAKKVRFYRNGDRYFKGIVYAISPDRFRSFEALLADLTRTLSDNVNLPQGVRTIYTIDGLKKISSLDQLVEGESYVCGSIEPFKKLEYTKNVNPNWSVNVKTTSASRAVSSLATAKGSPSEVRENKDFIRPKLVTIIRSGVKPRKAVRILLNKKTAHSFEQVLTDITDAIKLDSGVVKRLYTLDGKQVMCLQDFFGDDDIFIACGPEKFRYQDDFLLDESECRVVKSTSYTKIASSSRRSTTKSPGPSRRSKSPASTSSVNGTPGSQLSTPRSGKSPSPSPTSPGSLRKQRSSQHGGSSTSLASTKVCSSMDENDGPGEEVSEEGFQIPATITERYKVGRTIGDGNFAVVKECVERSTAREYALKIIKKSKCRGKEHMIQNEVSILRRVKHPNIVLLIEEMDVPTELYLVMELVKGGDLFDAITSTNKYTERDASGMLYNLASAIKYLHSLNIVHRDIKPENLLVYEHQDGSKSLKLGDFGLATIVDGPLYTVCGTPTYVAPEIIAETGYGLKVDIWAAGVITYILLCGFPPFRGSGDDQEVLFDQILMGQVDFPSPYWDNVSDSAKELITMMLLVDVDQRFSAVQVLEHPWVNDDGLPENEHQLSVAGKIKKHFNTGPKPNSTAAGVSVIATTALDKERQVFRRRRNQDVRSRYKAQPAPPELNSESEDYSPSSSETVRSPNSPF
Serine/threonine-protein phosphatase PP1-alpha catalytic subunit, sequence (P62136 whole entry): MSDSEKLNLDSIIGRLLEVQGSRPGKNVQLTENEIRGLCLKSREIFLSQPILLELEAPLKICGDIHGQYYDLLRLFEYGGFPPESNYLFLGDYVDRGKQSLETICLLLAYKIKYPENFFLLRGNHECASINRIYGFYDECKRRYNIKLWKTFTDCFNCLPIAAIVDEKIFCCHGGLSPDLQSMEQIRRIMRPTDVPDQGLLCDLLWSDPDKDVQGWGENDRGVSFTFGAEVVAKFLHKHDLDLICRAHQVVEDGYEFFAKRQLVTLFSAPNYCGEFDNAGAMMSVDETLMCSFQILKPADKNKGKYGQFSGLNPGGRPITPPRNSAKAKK
Serine/threonine-protein kinase PAK 4, sequence (O96013 whole entry): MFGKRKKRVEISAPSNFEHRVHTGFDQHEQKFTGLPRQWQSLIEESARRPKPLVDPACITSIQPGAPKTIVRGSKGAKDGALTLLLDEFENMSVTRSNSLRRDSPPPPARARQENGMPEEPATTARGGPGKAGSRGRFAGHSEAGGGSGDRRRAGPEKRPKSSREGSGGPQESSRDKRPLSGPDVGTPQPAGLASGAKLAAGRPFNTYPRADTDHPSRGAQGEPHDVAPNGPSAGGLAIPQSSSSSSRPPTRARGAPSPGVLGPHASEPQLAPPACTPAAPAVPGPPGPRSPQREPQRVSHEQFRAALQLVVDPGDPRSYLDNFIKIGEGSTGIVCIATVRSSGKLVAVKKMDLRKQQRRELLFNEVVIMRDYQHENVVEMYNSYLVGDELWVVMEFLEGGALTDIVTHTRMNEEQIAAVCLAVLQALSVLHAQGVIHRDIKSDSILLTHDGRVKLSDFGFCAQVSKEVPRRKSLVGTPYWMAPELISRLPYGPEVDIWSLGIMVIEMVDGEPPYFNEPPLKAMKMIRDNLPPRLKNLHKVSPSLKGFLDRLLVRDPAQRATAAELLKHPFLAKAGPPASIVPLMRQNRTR
Interleukin-1 receptor-associated kinase 1, sequence (P51617 whole entry): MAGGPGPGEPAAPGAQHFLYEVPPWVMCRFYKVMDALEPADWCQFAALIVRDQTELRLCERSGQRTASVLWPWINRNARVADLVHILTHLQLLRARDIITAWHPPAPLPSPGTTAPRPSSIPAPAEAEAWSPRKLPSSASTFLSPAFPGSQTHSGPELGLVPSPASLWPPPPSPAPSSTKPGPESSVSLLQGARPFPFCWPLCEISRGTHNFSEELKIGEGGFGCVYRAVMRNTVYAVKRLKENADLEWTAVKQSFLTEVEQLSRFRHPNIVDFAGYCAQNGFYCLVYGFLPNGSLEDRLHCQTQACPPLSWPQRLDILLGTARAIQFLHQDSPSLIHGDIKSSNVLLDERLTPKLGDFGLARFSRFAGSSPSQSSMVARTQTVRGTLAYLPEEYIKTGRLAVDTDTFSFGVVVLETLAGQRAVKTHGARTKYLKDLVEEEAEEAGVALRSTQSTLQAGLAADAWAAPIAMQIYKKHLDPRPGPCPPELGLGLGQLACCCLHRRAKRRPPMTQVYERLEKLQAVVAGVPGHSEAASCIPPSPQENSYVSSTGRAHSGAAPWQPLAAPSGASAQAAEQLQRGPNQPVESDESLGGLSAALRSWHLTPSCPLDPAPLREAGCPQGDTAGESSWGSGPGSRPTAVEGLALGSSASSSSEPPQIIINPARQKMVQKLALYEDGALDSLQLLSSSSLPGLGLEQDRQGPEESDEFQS
Dual specificity tyrosine-phosphorylation-regulated kinase 3, sequence (O43781 whole entry): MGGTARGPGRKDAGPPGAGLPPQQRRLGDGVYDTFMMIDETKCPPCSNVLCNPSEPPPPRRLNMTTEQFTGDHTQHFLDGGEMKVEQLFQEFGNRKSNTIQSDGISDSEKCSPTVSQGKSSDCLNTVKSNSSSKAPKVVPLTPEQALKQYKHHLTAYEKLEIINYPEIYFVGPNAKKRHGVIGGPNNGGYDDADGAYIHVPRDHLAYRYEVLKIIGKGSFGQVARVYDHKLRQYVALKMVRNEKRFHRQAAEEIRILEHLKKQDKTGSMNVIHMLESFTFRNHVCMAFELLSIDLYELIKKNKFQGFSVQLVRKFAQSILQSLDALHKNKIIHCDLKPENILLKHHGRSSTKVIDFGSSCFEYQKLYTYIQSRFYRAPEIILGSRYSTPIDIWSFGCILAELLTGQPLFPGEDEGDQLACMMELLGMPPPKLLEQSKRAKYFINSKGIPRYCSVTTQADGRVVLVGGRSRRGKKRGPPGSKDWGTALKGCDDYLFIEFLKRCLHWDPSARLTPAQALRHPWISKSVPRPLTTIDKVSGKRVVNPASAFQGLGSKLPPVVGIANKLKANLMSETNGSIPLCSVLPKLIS
Serine/threonine-protein kinase 17A, sequence (Q9UEE5 whole entry): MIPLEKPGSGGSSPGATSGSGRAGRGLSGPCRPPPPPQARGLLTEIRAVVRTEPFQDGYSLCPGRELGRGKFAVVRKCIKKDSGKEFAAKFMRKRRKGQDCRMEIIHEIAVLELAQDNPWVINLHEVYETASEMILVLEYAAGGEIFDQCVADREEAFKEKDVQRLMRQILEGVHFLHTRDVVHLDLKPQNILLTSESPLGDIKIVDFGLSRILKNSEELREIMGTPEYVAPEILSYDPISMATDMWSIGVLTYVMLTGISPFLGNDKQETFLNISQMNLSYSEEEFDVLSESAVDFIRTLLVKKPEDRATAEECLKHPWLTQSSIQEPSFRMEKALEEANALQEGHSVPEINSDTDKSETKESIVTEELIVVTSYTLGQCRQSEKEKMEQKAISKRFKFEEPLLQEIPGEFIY

Structure (SMILES): COc1cc(Br)c(C(=O)c2nccc3cc(OC)c(OC)cc23)cc1OC
IC50 [1]: 52.1 µM (not active)
IC50 (Caspase-3 [2]): 23.9 µM (active)
IC50 (SUMO-activating enzyme [3]): 0.42 µM (active)
IC50 (SUMO-activating enzyme [4]): 12.8 µM (active)

Structure (SMILES): Cc1c(NC(=O)C(C)OC(=O)c2ccc([N+](=O)[O-])s2)c(=O)n(-c2ccccc2)n1C (stereo not given)
IC50 (Caspase-3 [5]): 13.6 µM (active)
EC50 [6]: > 60 µM (not active)

Ki [7]: 1.26 µM (active)
Ki [8]: > 3.98 µM (inactive)
Ki [9]: > 5.01 µM (inactive)
Ki [10]: > 6.31 µM (inactive)
Ki [11]: > 3.16 µM (inactive)
Ki [12]: > 1.58 µM (inactive)
Ki [13]: > 6.31 µM (inactive)
Ki [14]: 3.98 µM (active)
Ki [15]: 5.01 µM (active)
Ki [16]: 0.0794 µM (active)
Ki [17]: > 1.58 µM (inactive)
Ki [18]: 3.98 µM (active)
Ki (Misshapen-like kinase 1): 3.16 µM (active)
Ki [19]: 0.398 µM (active)
Ki [20]: 7.94 µM (active)
Ki [21]: > 1.58 µM (inactive)
Ki (Activin receptor type-1): 1 µM (active)
Ki [22]: 1.26 µM (active)
Ki [23]: > 7.94 µM (inactive)
Ki [24]: > 5.01 µM (inactive)
Ki [25]: > 6.31 µM (inactive)
Ki [26]: > 1.58 µM (inactive)
Ki [27]: > 2.51 µM (inactive)
Ki [28]: > 10 µM (inactive)
Ki (Insulin receptor): > 5.01 µM (inactive)
Ki [29]: 0.501 µM (active)
Ki [30]: 1.58 µM (active)
Ki [31]: 2.51 µM (active)
Ki [32]: > 6.31 µM (inactive)
Structure (SMILES): CC(N)C1CCC(C(=O)Nc2ccnc3[nH]ccc23)CC1 (stereo not given)
